Measured values reported in patent publication US20170246235A1, “GREEN TEA COMPOSITIONS” (priority 2014, published 2017).
Like-named read-outs stand apart in the source and are kept apart here.

Legend:
[1] = meta-analysis of 97 studies, Manach et al. (2005); cited from earlier work
α-amylase = details: cited from earlier work; for inhibition of α-amylase: at a concentration of 20 μM
[2] = after oral green tea extract; cited from earlier work
P. falciparum = test: Parasite growth measured by radiolabeled hypoxanthine uptake; assay type: cell-based, Plasmodium falciparum
Procedure: Growth was measured by hypoxanthine uptake using radiolabeled hypoxanthine. […] ([…]) indicates rep. […] Graphpad Prism 6 software was used to analyse the data using the equation for log(inhibitor) vs. normalized response (variable slope).
This example was carried out to determine the parasiticidal efficacy of Phytofare® green tea extract containing catechins. The extract was resuspended in water to give a stock concentration of 58 mg/ml. Parasite growth was measured by hypoxanthine uptake using radiolabeled hypoxanthine as described (Slavic, K. et al., Mol. Biochem. Parasitol. 168:113-116, 2009). […] Each experiment included five technical replicates, and a total of three biological replicates were carried out.
The assay was repeated to obtain the IC50 values for pure caffeine, and for Epigallocatechin Gallate (EGCG) which is present in the extract, obtained from a different source. The concentration ranges used were 352.44 μM to 0.69 μM for caffeine, and 371.01 μM to 0.73 μM for EGCG. These concentrations reflect the molar concentrations present at the highest concentration (μg/ml) of extract used.

HIV-1 integrase = target: T1, HIV-1 integrase (Human immunodeficiency virus type 1 group M subtype B, UniProt P04585); details: cited from earlier work
T1 construct: Full-length recombinant HIV-1 integrase protein (200 nM, purified from bacteria); literature Express Biotech International; host or cells: bacteria

breast cancer cells = details: cited from earlier work
MMP2 = details: cited from earlier work
MMP9 = details: cited from earlier work
[3] = cited from earlier work

Oc1cc(O)c2c(c1)O[C@H](c1ccc(O)c(O)c1)[C@H](O)C2 [epicatechin]
elimination half-life [1]: 2.5 ± 0.4 h

Oc1cc(O)c2c(c1)O[C@H](c1cc(O)c(O)c(O)c1)[C@H](O)C2 [EGC, epi-gallocatechin]
inhibition of α-amylase (α-amylase): 13%
area-under-curve, aqueous humor [2]: 2035.0 ± 531.7 nM·h
concentration in aqueous humor [2]: 602.9 ± 116.7 nM
elimination half-life [1]: 2.3 ± 0.2 h

Cn1c(=O)c2c(ncn2C)n(C)c1=O [caffeine]
inhibition by caffeine alone (P. falciparum; even at 352.44 μM): no inhibition
IC50, rep. 1 (P. falciparum; independent IC50 assay rep. 1): no calculable IC50 values
IC50, rep. 2 (P. falciparum; independent IC50 assay rep. 2): no calculable IC50 values
IC50, rep. 3 (P. falciparum; independent IC50 assay rep. 3): no calculable IC50 values

epigallocatechin-3-gallate [EGCG]
IC50 (P. falciparum; ± S.E.M., read-out: IC50, means of the three independent experiments): 80.8 µM
effect on Km of α-amylase (α-amylase; 50 μM EGCG, p=0.1): did not significantly affect
Vmax of α-amylase (α-amylase; 50 μM EGCG, reduced from 323.3): 206.1 product/min/mg protein
inhibition of α-amylase (α-amylase): 34%
IC50 for HIV-1 integrase (HIV-1 integrase): slightly higher than Raltegravir
inhibition of invasion by breast cancer cells (breast cancer cells; 20 μg/ml in the media): about 26%
inhibition of invasion by breast cancer cells (breast cancer cells; 50 μg/ml in the media): ~100%
production of MMP2 (MMP2; 20 ug/ml in the media): reduced
activity of MMP2 (MMP2; 50 μg/ml and 100 ug/ml): completely inhibited
production of MMP9 (MMP9; 20 ug/ml in the media): completely inhibited
activity of MMP9 (MMP9; 50 μg/ml and 100 ug/ml): completely inhibited
cellular toxicity to the corneal epithelium ([3]; 0.01% or 0.1% EGCG): No cellular toxicity
decrease in corneal fluorescein staining compared with the vehicle ([3]; topical 0.1% EGCG): 24.6%
decrease in corneal fluorescein staining compared with untreated controls ([3]; topical 0.1% EGCG): 41.9%
decrease in number of CD11b+ cells, central cornea, compared with the vehicle ([3]; topical 0.1% EGCG): 26.1%
decrease in number of CD11b+ cells, peripheral cornea, compared with the vehicle ([3]; topical 0.1% EGCG): 23.3%
elimination half-life [1]: 3.5 ± 0.3 h

Oc1cc(O)c2c(c1)O[C@H](c1cc(O)c(O)c(O)c1)[C@@H](O)C2 [gallocatechin]
area-under-curve, retina [2]: 207,000 pmol×h/g
highest concentration in the retina [2]: 22729.4 ± 4229.4 pmol/g
